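Following 48 hours of exposure in 96-well plates, responses at five concentrations were used to interpolate endpoints linearly. The concentration for 50% growth inhibition is given as GI50.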 Calls of active or inactive are those of the source. No stated cut-off is given here; in the data, active = GI50 up to about 1.1 µM and inactive = higher.
How the values were obtained:
Assay in all cases: NCI-60 cell line screen, 48 h
M14 = system: M14
PC-3 = system: PC-3
IGROV-1 = system: IGROV-1
SF-268 = system: SF-268
MCF7 = system: MCF7
COLO 205 = system: COLO 205
A498 = system: A498
UACC-62 = system: UACC-62
HCT-15 = system: HCT-15
SNB-19 = system: SNB-19
EKVX = system: EKVX
SN12C = system: SN12C
SK-MEL-2 = system: SK-MEL-2
HCC 2998 = system: HCC 2998
NCI-H23 = system: NCI-H23
UACC-257 = system: UACC-257
HCT-116 = system: HCT-116
MDA-MB-231 = system: MDA-MB-231
SNB-75 = system: SNB-75
T47D = system: T47D

Compound | GI50 (M14) | GI50 (PC-3) | GI50 (IGROV-1) | GI50 (SF-268) | GI50 (MCF7) | GI50 (COLO 205) | GI50 (A498) | GI50 (UACC-62) | GI50 (HCT-15) | GI50 (SNB-19) | GI50 (EKVX) | GI50 (SN12C) | GI50 (SK-MEL-2) | GI50 (HCC 2998) | GI50 (NCI-H23) | GI50 (UACC-257) | GI50 (HCT-116) | GI50 (MDA-MB-231) | GI50 (SNB-75) | GI50 (T47D)
CCCNC(=O)Cn1c2c(c3ccccc31)CCCC2 | > 100 µM (inactive) | 63.8 µM (inactive) | > 100 µM (inactive) | > 100 µM (inactive) | > 100 µM (inactive) | > 100 µM (inactive) | 27.8 µM (inactive) | 45.4 µM (inactive) | 45.2 µM | 36.7 µM (inactive) | 56.6 µM (inactive) | 65.2 µM (inactive) | > 100 µM (inactive) | 75.5 µM (inactive) | 72.3 µM (inactive) | 94 µM (inactive) | 29.2 µM (inactive) | – | – | –
Cc1ccc2c(c1)-c1nc(N)c(C#N)c(-c3ccccc3)c1CCS2(=O)=O | > 100 µM (inactive) | 49.2 µM (inactive) | 31.3 µM (inactive) | 46.5 µM (inactive) | – | > 100 µM (inactive) | 28.8 µM (inactive) | 49.7 µM (inactive) | 44.1 µM | 23.6 µM (inactive) | – | 41.4 µM (inactive) | 45.8 µM (inactive) | > 100 µM (inactive) | 87.9 µM (inactive) | 44.9 µM (inactive) | > 100 µM (inactive) | 37 µM (inactive) | 24.4 µM (inactive) | > 100 µM (inactive)
S=C1CSc2c(cnc3ccccc23)N1 | > 100 µM (inactive) | 68.4 µM (inactive) | > 100 µM (inactive) | > 100 µM (inactive) | > 100 µM (inactive) | > 100 µM (inactive) | – | > 100 µM (inactive) | > 100 µM | > 100 µM (inactive) | 76.4 µM (inactive) | > 100 µM (inactive) | – | – | > 100 µM (inactive) | > 100 µM (inactive) | > 100 µM (inactive) | > 100 µM (inactive) | 56.8 µM (inactive) | 80.5 µM (inactive)
CN(CCSCCN(C)C(=O)OC(C)(C)C)C(=O)OC(C)(C)C | > 100 µM (inactive) | > 100 µM (inactive) | > 100 µM (inactive) | > 100 µM (inactive) | > 100 µM (inactive) | > 100 µM (inactive) | – | > 100 µM (inactive) | > 100 µM | > 100 µM (inactive) | > 100 µM (inactive) | > 100 µM (inactive) | > 100 µM (inactive) | > 100 µM (inactive) | > 100 µM (inactive) | > 100 µM (inactive) | > 100 µM (inactive) | > 100 µM (inactive) | 61.5 µM (inactive) | –
COc1ccc(N2C(=O)c3cc([N+](=O)[O-])cnc3S2(=O)=O)cc1 | – | > 100 µM (inactive) | > 100 µM (inactive) | > 100 µM (inactive) | – | > 100 µM (inactive) | – | > 100 µM (inactive) | > 100 µM | > 100 µM (inactive) | > 100 µM (inactive) | > 100 µM (inactive) | > 100 µM (inactive) | > 100 µM (inactive) | > 100 µM (inactive) | – | > 100 µM (inactive) | > 100 µM (inactive) | > 100 µM (inactive) | –
[N-]=[N+]=Nc1cc(=O)[nH]c2ccccc12 | > 100 µM (inactive) | 39.4 µM (inactive) | 31.9 µM (inactive) | > 100 µM (inactive) | 52 µM (inactive) | > 100 µM (inactive) | – | 44.2 µM (inactive) | – | > 100 µM (inactive) | 4.98 µM (inactive) | > 100 µM (inactive) | > 100 µM (inactive) | – | > 100 µM (inactive) | > 100 µM (inactive) | > 100 µM (inactive) | > 100 µM (inactive) | 32.3 µM (inactive) | 64.9 µM (inactive)
CCOC(=O)CCCn1nnc(C(=O)OCC)c1C(=O)OCC | – | > 100 µM (inactive) | > 100 µM (inactive) | > 100 µM (inactive) | > 100 µM (inactive) | > 100 µM (inactive) | – | > 100 µM (inactive) | > 100 µM | > 100 µM (inactive) | > 100 µM (inactive) | > 100 µM (inactive) | > 100 µM (inactive) | > 100 µM (inactive) | > 100 µM (inactive) | > 100 µM (inactive) | > 100 µM (inactive) | > 100 µM (inactive) | > 100 µM (inactive) | > 100 µM (inactive)
Cc1cccc2oc3c(CC(=O)O)cccc3c(=O)c12 | > 100 µM (inactive) | > 100 µM (inactive) | > 100 µM (inactive) | > 100 µM (inactive) | > 100 µM (inactive) | > 100 µM (inactive) | > 100 µM (inactive) | – | > 100 µM | > 100 µM (inactive) | > 100 µM (inactive) | > 100 µM (inactive) | 5.16 µM (inactive) | 20.5 µM (inactive) | > 100 µM (inactive) | > 100 µM (inactive) | > 100 µM (inactive) | > 100 µM (inactive) | – | –
